The text below walks through data of patent US20080085884A1, “Melanin Concentrating Hormone Receptor-1 Antagonist Pyridinones” (Pfizer Inc, priority 2006, published 2008).

The target of this test is T1, human MCHR1 (Homo sapiens, UniProt Q99705).
T1 construct: host or cells: CHO
T1 sequence (Q99705 whole entry): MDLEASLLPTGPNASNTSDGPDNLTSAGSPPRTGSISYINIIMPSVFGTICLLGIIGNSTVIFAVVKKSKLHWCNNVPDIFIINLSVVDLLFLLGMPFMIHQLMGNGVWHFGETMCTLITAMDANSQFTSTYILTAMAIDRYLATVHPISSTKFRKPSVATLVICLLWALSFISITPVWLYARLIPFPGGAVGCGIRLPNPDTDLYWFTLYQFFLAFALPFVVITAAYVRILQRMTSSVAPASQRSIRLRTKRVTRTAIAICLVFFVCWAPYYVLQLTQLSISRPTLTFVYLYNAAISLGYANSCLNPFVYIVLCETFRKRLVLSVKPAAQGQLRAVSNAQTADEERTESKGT
In words: Cyclic AMP assay (MCHR-1 functional antagonism). Format: cell-based. As to conditions: CHO cells stably expressing human MCHR1; cAMP accumulation with 25 uM forskolin and 0.2 nM MCH, 90 min; Ki from IC50 by Cheng-Prusoff; read-out: MCHR-1 functional Ki. Here is the method: CHO cell lines stably expressing the human MCHR1 (Euroscreen, Brussels, Belgium) were maintained in DMEM containing Glutamax (Invitrogen, Carlsbad, Calif.), 10% FBS, 400 ug/ml Geneticin.
Cyclic AMP assays. CHO cells stably expressing the human MCHR1 receptors were collected and resuspended at a density of 4.0×10^6 cells/ml in F12 (Hams) media and seeded (20,000 cells per well) into 384-well, solid white Greiner assay plates. […] Cells were incubated at 37° C./5% CO2 for 90 minutes and cAMP accumulation subsequently determined by DiscoveRx Hithunter c-AMP II Assay kit (GE Healthcare, Buckinghamshire, UK) in accordance with manufactures instructions. Luminescence was measured on a LEADseaker imaging system (GE Healthcare, Buckinghamshire, UK). IC50 values were calculated from dose-response data fit using an in-house computer graphics and statistics program.
`CC(C)CC1CN(c2ccc(-n3ccc(OCc4ccccc4)cc3=O)cn2)CCN1` (stereo not drawn) [Example 71]: the inhibition constant Ki – broadly, the dissociation constant of the complex between target and ligand, obtained from inhibition or displacement – is 626 nM.

As for `CCC1CN(c2ccc(-n3ccc(OCc4ccccc4)cc3=O)cn2)CCN1` (stereo not drawn) [Example 72], the inhibitory constant (Ki) came out at 74.6 nM.

`C[C@@H]1CN(c2ccc(-n3ccc(OCc4ccccc4)cc3=O)cn2)[C@@H](C)CN1` [Example 73]: the Ki is 517 nM.

Turning to `O=c1cc(OCc2ccccc2)ccn1-c1ccc(N2CC(N3CCCC3)C2)nc1` [Example 78], the inhibition constant Ki stood at 155 nM.

For the compound `O=c1cc(OCc2ccccc2)ccn1-c1ccc(N2CC(N3CCC3)C2)nc1` [Example 79], the Ki turned out to be 416 nM.

With `COC(=O)N1CCN(c2ccc(-n3ccc(OCc4ccc(F)cc4)cc3=O)cn2)CC1` [Example 81], the Ki is 1170 nM.

`CC(=O)N1CCN(c2ccc(-n3ccc(OCc4ccc(F)cc4)cc3=O)cn2)CC1` [Example 83]: the inhibition constant Ki amounted to 851 nM.

Regarding `O=c1cc(OCc2ccc(F)cc2)ccn1-c1ccc(N2CCC[C@@H](O)C2)nc1` [Example 87], the Ki was found to be 191 nM.

Take `O=c1cc(OCc2ccc(F)cc2)ccn1-c1ccc(N2CCC[C@H](O)C2)nc1` [Example 88]: the inhibition constant (Ki) was 1140 nM.

On to `O=c1cc(OCc2ccc(F)cc2)ccn1-c1ccc(N2CCC2)nc1` [Example 90], for which the Ki amounted to 96.7 nM.

With `O=c1cc(OCc2ccc(F)cc2)ccn1-c1ccc(N2CC(O)C2)nc1` [Example 91], the Ki worked out at 396 nM.

On to `O=c1cc(COc2ccc(F)cc2)ccn1-c1ccc(N2CC[C@@H](O)C2)nc1` [Example 93], for which the Ki amounted to 1090 nM.

Take `O=c1cc(OCc2ccc(F)cc2)ccn1-c1ccc(N2CC(N3CCCC3)C2)nc1` [Example 95]: the Ki came out at 147 nM.

Consider `O=c1cc(OCc2ccc(F)cc2)ccn1-c1ccc(N2CC(N3CCC3)C2)nc1` [Example 96], for which the inhibition constant Ki came to 195 nM.

For `O=c1cc(OCc2ccc(Cl)cc2)ccn1-c1ccc(N2C[C@@H](O)[C@@H](O)C2)nc1` [Example 101], the inhibition constant (Ki) is 25.8 nM.

As for `N[C@@H]1CCN(c2ccc(-n3ccc(OCc4ccc(Cl)cc4)cc3=O)cn2)C1` [Example 105], the inhibition constant Ki stood at 6.34 nM.

On to `O=c1cc(OCc2ccc(Cl)cc2)ccn1-c1ccc(N2CCC[C@@H](O)C2)nc1` [Example 106], for which the inhibition constant Ki amounted to 65.8 nM.

`O=c1cc(OCc2ccc(Cl)cc2)ccn1-c1ccc(N2C[C@H]3CNC[C@H]3C2)nc1` [Example 107]: the Ki was found to be 5.43 nM.

Take `O=c1cc(OCc2ccccc2)ccn1-c1ccc(N2CCCCC2)nc1` [Example 110]: the inhibition constant (Ki) was 41.6 nM.

Consider `CNC1CN(c2ccc(-n3ccc(OCc4ccccc4)cc3=O)cn2)C1` [Example 111], for which the Ki was 161 nM.

On to `CNC1CN(c2ccc(-n3ccc(OCc4ccc(F)cc4)cc3=O)cn2)C1` [Example 112], for which the Ki was 184 nM.

On to `O=c1cc(OCc2ccc(F)cc2)ccn1-c1ccc(N2CC[C@@H](O)C2)nc1` [Example 113], for which the inhibition constant Ki was determined as 50.4 nM.

In the case of `O=c1cc(OCc2ccc(F)cc2)ccn1-c1ccc(N2CC[C@H](O)C2)nc1` [Example 114], the inhibition constant (Ki) stood at 47.9 nM.

`O=c1cc(OCc2ccc(F)cc2)ccn1-c1ccc(N2CCC(O)CC2)nc1` [Example 115]: the Ki worked out at 100 nM.

For `O=c1cc(OCc2ccc(F)cc2)ccn1-c1ccc(N2CCCC2)nc1` [Example 116], the inhibition constant (Ki) was found to be 26.9 nM.

`N[C@H]1CCN(c2ccc(-n3ccc(OCc4ccc(F)cc4)cc3=O)cn2)C1` [Example 118]: the Ki came to 11.5 nM.

Turning to `CN[C@H]1CCN(c2ccc(-n3ccc(COc4ccccc4)cc3=O)cn2)C1` [Example 122], the Ki came to 110 nM.

`O=c1cc(OCc2cccc(Cl)c2)ccn1-c1ccc(N2CC[C@@H](O)C2)nc1` [Example 144]: the inhibition constant Ki was found to be 69.9 nM.

Turning to `O=c1cc(OCc2ccccc2Cl)ccn1-c1ccc(N2CC[C@@H](O)C2)nc1` [Example 145], the Ki amounted to 98.5 nM.

As for `O=c1cc(OCc2ccc(Cl)c(F)c2)ccn1-c1ccc(N2CC[C@@H](O)C2)nc1` [Example 146], the Ki was 60.1 nM.

As to `O=c1cc(OCc2ccc(Cl)cc2F)ccn1-c1ccc(N2CC[C@@H](O)C2)nc1` [Example 147], the inhibition constant (Ki) worked out at 26.2 nM.

In the case of `O=c1cc(OCc2ccc(F)c(F)c2)ccn1-c1ccc(N2CC[C@@H](O)C2)nc1` [Example 148], the inhibitory constant (Ki) is 125 nM.

In the case of `CN[C@H]1CCN(c2ccc(-n3ccc(OCc4cccc(Cl)c4)cc3=O)cn2)C1` [Example 149], the inhibition constant (Ki) was 3.46 nM.

Take `CN[C@H]1CCN(c2ccc(-n3ccc(OCc4ccc(F)c(F)c4)cc3=O)cn2)C1` [Example 150]: the inhibition constant (Ki) came to 3.47 nM.

As to `CN[C@H]1CCN(c2ccc(-n3ccc(OCc4ccccc4Cl)cc3=O)cn2)C1` [Example 151], the inhibitory constant (Ki) turned out to be 6.04 nM.

With `CN[C@H]1CCN(c2ccc(-n3ccc(OCc4ccc(Cl)c(F)c4)cc3=O)cn2)C1` [Example 152], the Ki came out at 2.31 nM.

As for `CN[C@H]1CCN(c2ccc(-n3ccc(OCc4ccc(Cl)cc4F)cc3=O)cn2)C1` [Example 153], the inhibition constant Ki turned out to be 2.02 nM.

Turning to `CN(C(=O)OC(C)(C)C)[C@H]1CCN(c2ccc(-n3ccc(OCc4ccccc4)cc3=O)nn2)C1` [Example 156], the Ki is 230 nM.

For `O=c1cc(OCc2ccccc2)ccn1-c1ccc(N2CC[C@@H](O)C2)nn1` [Example 157], the Ki amounted to 3160 nM.

Take `CC(=O)N1C[C@@H]2CN(c3ccc(-n4ccc(OCc5ccccc5)cc4=O)cn3)C[C@@H]2C1` [Example 158]: the Ki came to 49.8 nM.

Consider `CCN(C(C)=O)[C@@H]1CCN(c2ccc(-n3ccc(OCc4ccccc4)cc3=O)cn2)C1` [Example 160], for which the inhibition constant (Ki) is 26.8 nM.

In the case of `CCN(C(C)=O)[C@H]1CCN(c2ccc(-n3ccc(OCc4ccccc4)cc3=O)cn2)C1` [Example 161], the Ki was found to be 33.3 nM.

Turning to `CC(=O)N[C@H]1CCN(c2ccc(-n3ccc(OCc4ccccc4)cc3=O)cn2)C1` [Example 162], the inhibitory constant (Ki) was determined as 30.9 nM.

`CC(=O)N1C[C@@H]2CN(c3ccc(-n4ccc(OCc5ccc(F)cc5)cc4=O)cn3)C[C@@H]2C1` [Example 164]: the Ki worked out at 66.8 nM.

For `CC(=O)N(C)C1CCN(c2ccc(-n3ccc(OCc4ccccc4)cc3=O)cn2)CC1` [Example 165], the Ki was 29.2 nM.

In the case of `CC(C)C(=O)N1CCN(c2ccc(-n3ccc(OCc4ccccc4)cc3=O)cn2)CC1` [Example 166], the Ki stood at 1210 nM.

Take `CCC(=O)N1CCN(c2ccc(-n3ccc(OCc4ccccc4)cc3=O)cn2)CC1` [Example 167]: the Ki was found to be 749 nM.

Regarding `CCC(=O)N1CCN(c2ccc(-n3ccc(OCc4ccc(F)cc4)cc3=O)cn2)CC1` [Example 168], the Ki amounted to 539 nM.

On to `CCCC(=O)N[C@H]1CCN(c2ccc(-n3ccc(OCc4ccccc4)cc3=O)cn2)C1` [Example 169], for which the Ki amounted to 19.4 nM.

In the case of `CC(C)C(=O)N1C[C@@H]2CN(c3ccc(-n4ccc(OCc5ccc(F)cc5)cc4=O)cn3)C[C@@H]2C1` [Example 170], the Ki came out at 29.1 nM.

Take `CCC(=O)N1C[C@@H]2CN(c3ccc(-n4ccc(OCc5ccc(F)cc5)cc4=O)cn3)C[C@@H]2C1` [Example 171]: the inhibitory constant (Ki) amounted to 38.1 nM.

Turning to `CC(=O)N(C)[C@@H]1CCN(c2ccc(-n3ccc(OCc4ccc(Cl)cc4)cc3=O)cn2)C1` [Example 172], the Ki is 11 nM.

With `CC(=O)N(C)[C@H]1CCN(c2ccc(-n3ccc(OCc4ccc(Cl)cc4)cc3=O)cn2)C1` [Example 173], the Ki is 13.1 nM.

For the compound `CC(=O)N[C@H]1CCN(c2ccc(-n3ccc(OCc4ccc(Cl)cc4)cc3=O)cn2)C1` [Example 174], the Ki is 26.2 nM.

Regarding `CC(=O)N[C@@H]1CCN(c2ccc(-n3ccc(OCc4ccc(Cl)cc4)cc3=O)cn2)C1` [Example 175], the Ki was determined as 58.5 nM.

With `CCOC(=O)N[C@H]1CCN(c2ccc(-n3ccc(OCc4ccccc4)cc3=O)cn2)C1` [Example 176], the Ki turned out to be 29.9 nM.

Turning to `CCN(C(=O)OC)[C@H]1CCN(c2ccc(-n3ccc(OCc4ccccc4)cc3=O)cn2)C1` [Example 177], the Ki turned out to be 19.3 nM.

On to `CCN(C(=O)OC)[C@@H]1CCN(c2ccc(-n3ccc(OCc4ccccc4)cc3=O)cn2)C1` [Example 178], for which the Ki stood at 19.2 nM.

For `COC(=O)N(C)[C@@H]1CCN(c2ccc(-n3ccc(OCc4ccc(F)cc4)cc3=O)cn2)C1` [Example 179], the Ki was 18.9 nM.

`COC(=O)N(C)[C@H]1CCN(c2ccc(-n3ccc(OCc4ccc(F)cc4)cc3=O)cn2)C1` [Example 180]: the inhibitory constant (Ki) stood at 22.2 nM.

Consider `COC(=O)N(C)[C@H]1CCN(c2ccc(-n3ccc(OCc4ccccc4)cc3=O)cn2)C1` [Example 181], for which the Ki came out at 10.9 nM.

As for `COC(=O)N[C@H]1CCN(c2ccc(-n3ccc(OCc4ccc(F)cc4)cc3=O)cn2)C1` [Example 186], the inhibition constant Ki amounted to 29.8 nM.

On to `COC(=O)N(C)[C@@H]1CCN(c2ccc(-n3ccc(OCc4ccccc4)cc3=O)cn2)C1` [Example 187], for which the Ki is 24.1 nM.

Turning to `COC(=O)N[C@@H]1CCN(c2ccc(-n3ccc(OCc4ccccc4)cc3=O)cn2)C1` [Example 188], the Ki was found to be 218 nM.

For the compound `COC(=O)N[C@@H]1CCN(c2ccc(-n3ccc(OCc4ccc(F)cc4)cc3=O)cn2)C1` [Example 192], the Ki turned out to be 144 nM.

As to `COC(=O)NC1CN(c2ccc(-n3ccc(OCc4ccc(F)cc4)cc3=O)cn2)C1` [Example 193], the inhibition constant (Ki) turned out to be 196 nM.

Regarding `COC(=O)N[C@H]1CCN(c2ccc(-n3ccc(OCc4ccc(Cl)cc4)cc3=O)cn2)C1` [Example 194], the Ki was found to be 46.6 nM.

With `COC(=O)N1C[C@@H]2CN(c3ccc(-n4ccc(OCc5ccc(F)cc5)cc4=O)cn3)C[C@@H]2C1` [Example 195], the inhibitory constant (Ki) stood at 31.3 nM.

As for `CCC(=O)N[C@@H]1CCN(c2ccc(-n3ccc(OCc4ccccc4)cc3=O)cn2)C1` [Example 196], the Ki was determined as 605 nM.
